This passage reports Ki results from ChEMBL document CHEMBL1135083, “A designed P1 cysteine mimetic for covalent and non-covalent inhibitors of HCV NS3 protease” (Bioorg Med Chem Lett, 2002).

SMILES strings stand for the structures. Numbered stars: 1 amine (or outer) side, 2 acyl side, 3 side chain; on linkers, the order of the positions; unused ones are H or OH. Square brackets hold non-standard residues; d marks the D form. Peptide text beside a SMILES is read from it. * marks the point of attachment. Dip = N[C@H](C(=O)O)C(c1ccccc1)c1ccccc1; X4 = O=C(C(=O)[*:2])[C@H](CC(F)F)N[*:1]; X3 = O=C(c1nc2ccccc2s1)[C@H](CC(F)F)N*; X6 = O=C(c1nc2ccccc2o1)[C@H](CC(F)F)N*; Abu(4,4-F2) = N[C@@H](CC(F)F)C(=O)O; X5 = O=C([C@@H](CC(F)F)N[*:1])[*:2]; X1 = O=C(c1nccs1)[C@H](CC(F)F)N*; X2 = COC(=O)C(=O)[C@H](CC(F)F)N*; X7 = O=C(O)C(=O)[C@H](CC(F)F)N*; Cha = N[C@@H](CC1CCCCC1)C(=O)O; AllylGly = C=CC[C@H](N)C(=O)O; Abu = CC[C@H](N)C(=O)O; NHBn = c1ccc(CN*)cc1

The experiment deals with Hepatitis C virus serine protease, NS3/NS4A (Hepatitis C virus, UniProt A3EZI9+D2K2A8). The experiment in a line: Inhibition of hepatitis C virus (HCV) NS3/NS4A serine protease. The class given is protein-complex assay, Hepacivirus hominis.
Chain of Hepatitis C virus serine protease, NS3/NS4A (D2K2A8 whole entry): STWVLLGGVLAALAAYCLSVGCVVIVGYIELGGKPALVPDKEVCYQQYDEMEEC
Chain of Hepatitis C virus serine protease, NS3/NS4A (A3EZI9 whole entry): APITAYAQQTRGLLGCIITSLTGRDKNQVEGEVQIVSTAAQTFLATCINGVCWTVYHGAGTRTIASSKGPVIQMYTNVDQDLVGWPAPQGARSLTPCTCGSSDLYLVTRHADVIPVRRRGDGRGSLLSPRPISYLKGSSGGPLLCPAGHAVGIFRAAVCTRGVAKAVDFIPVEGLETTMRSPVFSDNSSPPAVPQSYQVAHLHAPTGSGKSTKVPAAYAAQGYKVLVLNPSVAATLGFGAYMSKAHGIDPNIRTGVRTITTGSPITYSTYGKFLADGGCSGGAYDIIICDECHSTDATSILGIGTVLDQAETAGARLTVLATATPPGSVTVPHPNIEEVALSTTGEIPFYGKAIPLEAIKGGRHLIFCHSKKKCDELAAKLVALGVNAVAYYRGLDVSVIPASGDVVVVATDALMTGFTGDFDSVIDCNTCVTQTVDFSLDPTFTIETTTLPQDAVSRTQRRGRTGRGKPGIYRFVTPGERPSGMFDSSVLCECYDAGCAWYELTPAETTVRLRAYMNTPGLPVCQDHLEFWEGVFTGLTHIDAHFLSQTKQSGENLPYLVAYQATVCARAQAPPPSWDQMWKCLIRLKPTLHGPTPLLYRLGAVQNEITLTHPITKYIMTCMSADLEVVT

Turning to `CC(=O)N[C@@H](CC(=O)O)C(=O)N[C@@H](CCC(=O)O)C(=O)N[C@H](C(=O)N[C@@H](CCC(=O)O)C(=O)N[C@@H](CC1CCCCC1)C(=O)N[C@@H](CC(F)F)C(=O)c1nccs1)C(c1ccccc1)c1ccccc1` (Ac-DE[Dip]E[Cha]-X1), the affinity, expressed as Ki, was 1500 nM.
As to `COC(=O)C(=O)[C@H](CC(F)F)NC(=O)[C@H](CC1CCCCC1)NC(=O)[C@H](CCC(=O)O)NC(=O)[C@@H](NC(=O)[C@H](CCC(=O)O)NC(=O)[C@H](CC(=O)O)NC(C)=O)C(c1ccccc1)c1ccccc1` (Ac-DE[Dip]E[Cha]-X2), the affinity, expressed as Ki, was 2 nM.
With `CC(=O)N[C@@H](CC(=O)O)C(=O)N[C@@H](CCC(=O)O)C(=O)N[C@H](C(=O)N[C@@H](CCC(=O)O)C(=O)N[C@@H](CC1CCCCC1)C(=O)N[C@@H](CC(F)F)C(=O)c1nc2ccccc2s1)C(c1ccccc1)c1ccccc1` (Ac-DE[Dip]E[Cha]-X3) the figure was 150 nM; with `CC(=O)N[C@@H](CC(=O)O)C(=O)N[C@@H](CCC(=O)O)C(=O)N[C@H](C(=O)N[C@@H](CCC(=O)O)C(=O)N[C@@H](CC1CCCCC1)C(=O)N[C@@H](CC(F)F)C(=O)c1nc2ccccc2o1)C(c1ccccc1)c1ccccc1` (Ac-DE[Dip]E[Cha]-X6), 600 nM.
As for `CC(=O)N[C@@H](CC(=O)O)C(=O)N[C@@H](CCC(=O)O)C(=O)N[C@H](C(=O)N[C@@H](CCC(=O)O)C(=O)N[C@@H](CC1CCCCC1)C(=O)N[C@@H](CC(F)F)C(=O)C(=O)O)C(c1ccccc1)c1ccccc1` (Ac-DE[Dip]E[Cha]-X7), the affinity corresponds to a Ki of 0.01 nM.
As for `CC(=O)N[C@@H](CC(=O)O)C(=O)N[C@@H](CCC(=O)O)C(=O)N[C@H](C(=O)N[C@@H](CCC(=O)O)C(=O)N[C@@H](CC1CCCCC1)C(=O)N[C@@H](CS)C(=O)O)C(c1ccccc1)c1ccccc1` (Ac-DE[Dip]E[Cha]C-OH), the figure is 40 nM; as for `CC(=O)N[C@@H](CC(=O)O)C(=O)N[C@@H](CCC(=O)O)C(=O)N[C@H](C(=O)N[C@@H](CCC(=O)O)C(=O)N[C@@H](CC1CCCCC1)C(=O)N[C@@H](CC(F)F)C(=O)O)C(c1ccccc1)c1ccccc1` (Ac-DE[Dip]E[Cha][Abu(4,4-F2)]-OH), 30 nM; as for `CC(=O)N[C@@H](CC(=O)O)C(=O)N[C@@H](CCC(=O)O)C(=O)N[C@H](C(=O)N[C@@H](CCC(=O)O)C(=O)N[C@@H](CC1CCCCC1)C(=O)N[C@H](C=O)CC(F)F)C(c1ccccc1)c1ccccc1` (Ac-DE[Dip]E[Cha][Abu(4,4-F2)]-aldehyde), 0.5 nM.
As for `CC[C@H](NC(=O)[C@H](CC1CCCCC1)NC(=O)[C@H](CCC(=O)O)NC(=O)[C@@H](NC(=O)[C@H](CCC(=O)O)NC(=O)[C@H](CC(=O)O)NC(C)=O)C(c1ccccc1)c1ccccc1)C(=O)O` (Ac-DE[Dip]E[Cha][Abu]-OH), the Ki worked out at 700 nM.
As to `C=CC[C@H](NC(=O)[C@H](CC1CCCCC1)NC(=O)[C@H](CCC(=O)O)NC(=O)[C@@H](NC(=O)[C@H](CCC(=O)O)NC(=O)[C@H](CC(=O)O)NC(C)=O)C(c1ccccc1)c1ccccc1)C(=O)O` (Ac-DE[Dip]E[Cha][AllylGly]-OH), affinity was put at a Ki of 100 nM.
With `C=CC[C@@H](C=O)NC(=O)[C@H](CC1CCCCC1)NC(=O)[C@H](CCC(=O)O)NC(=O)[C@@H](NC(=O)[C@H](CCC(=O)O)NC(=O)[C@H](CC(=O)O)NC(C)=O)C(c1ccccc1)c1ccccc1` (Ac-DE[Dip]E[Cha][AllylGly]-aldehyde), the Ki came out at 7 nM.
Turning to `CC(=O)N[C@@H](CC(=O)O)C(=O)N[C@@H](CCC(=O)O)C(=O)N[C@H](C(=O)N[C@@H](CCC(=O)O)C(=O)N[C@@H](CC1CCCCC1)C(=O)N[C@@H](CC(F)F)C(=O)C(=O)NCc1ccccc1)C(c1ccccc1)c1ccccc1` (Ac-DE[Dip]E[Cha][X4]-NHBn), the inhibitory constant (Ki) came to 1.5 nM.
As for `CC(=O)N[C@@H](CC(=O)O)C(=O)N[C@@H](CCC(=O)O)C(=O)N[C@H](C(=O)N[C@@H](CCC(=O)O)C(=O)N[C@@H](CC1CCCCC1)C(=O)N[C@H](CC(F)F)C(=O)O)C(c1ccccc1)c1ccccc1` (Ac-DE[Dip]E[Cha][X5]-OH), the figure is 640 nM.
